Tests used:
Assay type in all cases: in vivo
[1] = system: Blumeria graminis f. Sp. tritici (Erysiphe graminis f. sp. tritici); experiment: Blumeria graminis f. sp. tritici / wheat / leaf disc preventative (powdery mildew on wheat); details: foliar, wheat leaf segments cv. Kanzler, inoculated 1 day after application, assessed 6-8 days after application, compared to untreated, read-out: disease control
Description: Blumeria graminis f. Sp. tritici (Erysiphe graminis f. sp. tritici)/Wheat/Leaf Disc Preventative (Powdery Mildew on Wheat) Wheat leaf segments cv. Kanzler were placed on agar in a multiwell plate (24-well format) and sprayed with the formulated test compound diluted in water. The leaf disks were inoculated by shaking powdery mildew infected plants above the test plates 1 day after application. The inoculated leaf disks were incubated at 20° C. and 60% rh under a light regime of 24 h darkness followed by 12 h light/12 h darkness in a climate chamber and the activity of a compound was assessed as percent disease control compared to untreated when an appropriate level of disease damage appears on untreated check leaf segments (6-8 days after application). The following compounds gave at 200 ppm give at least 80% disease control in this test when compared to untreated control leaf disks under the same conditions, which show extensive disease development: […]

[2] = system: Puccinia recondita f. sp. tritici; experiment: Puccinia recondita f. sp. tritici / wheat / leaf disc preventative (brown rust); details: foliar, 168 h, wheat leaf segments cv. Kanzler, inoculated 1 day after application, assessed 7-9 days after application, compared to untreated, read-out: disease control
Description: Puccinia recondita f. sp. tritici/Wheat/Leaf Disc Preventative (Brown Rust) Wheat leaf segments cv. Kanzler were placed on agar in multiwell plates (24-well format) and sprayed with the formulated test compound diluted in water. The leaf disks were inoculated with a spore suspension of the fungus 1 day after application. The inoculated leaf segments were incubated at 19° C. and 75% rh under a light regime of 12 h light/12 h darkness in a climate cabinet and the activity of a compound was assessed as percent disease control compared to untreated when an appropriate level of disease damage appears in untreated check leaf segments (7-9 days after application). The following compounds gave at 200 ppm gave at least 80% disease control in this test when compared to untreated control leaf disks under the same conditions, which show extensive disease development: […]

[3] = system: Puccinia recondita f. sp. tritici; experiment: Puccinia recondita f. sp. tritici / wheat / leaf disc curative (brown rust); details: foliar, wheat leaf segments cv. Kanzler, compound applied 1 day after inoculation, assessed 6-8 days after application, compared to untreated, read-out: disease control
Description: Puccinia recondita f. sp. tritici/Wheat/Leaf Disc Curative (Brown Rust) Wheat leaf segments cv. Kanzler are placed on agar in multiwell plates (24-well format). The leaf segments are inoculated with a spore suspension of the fungus. Plates were stored in darkness at 19° C. and 75% rh. The formulated test compound diluted in water was applied 1 day after inoculation. The leaf segments were incubated at 19° C. and 75% rh under a light regime of 12 h light/12 h darkness in a climate cabinet and the activity of a compound was assessed as percent disease control compared to untreated when an appropriate level of disease damage appears in untreated check leaf segments (6-8 days after application). The following compounds gave at 200 ppm gave at least 80% disease control in this test when compared to untreated control leaf disks under the same conditions, which show extensive disease development: […]

Phakopsora pachyrhizi = Phakopsora pachyrhizi on soybean, preventive treatment; details: 264 h, 1 day preventive, triazole tolerant soybean rust strain, evaluated 11 days after application, compared to untreated, read-out: disease control
Description: Phakopsora pachyrhizi on Soybean, Preventive Treatment
The compound activity was tested under 1 day preventive conditions. Soybean plants with a fully enfolded first trifoliate leaf were sprayed with a track sprayer and 50 l/ha spray volume with the test compounds, either solo or in tankmix as shown in the table below. 1 day after application leaf discs were cut from the first trifoliate leaf and placed in multiwell plates on water-agar. 5 leaf discs per treatment where infested with spores of a triazole tolerant soybean rust strain. The multiwell plates where sealed and placed in an incubator 48 h in darkness and 12 h light/dark cycle afterwards. Rust infestation on leaf discs was evaluated visually 11 days after application and average activity calculated in relation to disease severity on untreated check leaf discs.
The following compounds gave at 200 ppm gave at least 80% disease control in this test when compared to untreated control leaf disks under the same conditions, which show extensive disease development: […]

Measured: pest or weed control at 200 ppm

CCCOCC(C)Oc1nc(C)c(/N=C/N(C)CC)cc1Br (stereo in doubt) [Q.002, N′-[5-bromo-2-methyl-6-[(1S)-1-methyl-2-propoxy-ethoxy]-3-pyridyl]-N-ethyl-N-methyl-formamidine]
≥ 80%: all assays above

CCCOCC(C)Oc1nc(C)c(/N=C/N(C)CC)cc1C#N (stereo not drawn) [Q.007, N′-[5-cyano-2-methyl-6-(1-methyl-2-propoxy-ethoxy)-3-pyridyl]-N-ethyl-N-methyl-formamidine]
≥ 80%: all assays above

CCCOCC(C)Oc1nc(C)c(N=CN(C)CC)cc1C(F)F (stereo not drawn) [Q.009, N′-[5-(difluoromethyl)-2-methyl-6-(1-methyl-2-propoxy-ethoxy)-3-pyridyl]-N-ethyl-N-methyl-formamidine]
≥ 80%: all assays above

CCCOCC(C)Oc1nc(C)c(N=CN(C)CC)cc1OC(F)F (stereo not drawn) [Q.010, N′-[5-(difluoromethoxy)-2-methyl-6-(1-methyl-2-propoxy-ethoxy)-3-pyridyl]-N-ethyl-N-methyl-formamidine]
≥ 80%: all assays above

CCCOCC(C)Oc1nc(C)c(N=CN(C)CC)cc1C (stereo not drawn) [Q.011, N′-[2,5-dimethyl-6-(1-methyl-2-propoxy-ethoxy)-3-pyridyl]-N-ethyl-N-methyl-formamidine]
≥ 80%: all assays above

CCCOCC(C)Oc1ccc(N=CN(C)CC)c(C)n1 (stereo not drawn) [Q.012, N-ethyl-N-methyl-N′-[2-methyl-6-(1-methyl-2-propoxy-ethoxy)-3-pyridyl]formamidine]
≥ 80%: [3] | Phakopsora pachyrhizi

CCCOCC(C)Oc1nc(C)c(/N=C/N(C)CC)cc1Br (stereo not drawn) [Q.013, N′-[5-bromo-2-methyl-6-(1-methyl-2-propoxy-ethoxy)-3-pyridyl]-N-ethyl-N-methyl-formamidine]
≥ 80%: all assays above

C=CCOCC(C)Oc1nc(C)c(N=CN(C)CC)cc1Cl (stereo not drawn) [Q.014, N′-[6-(2-allyloxy-1-methyl-ethoxy)-5-chloro-2-methyl-3-pyridyl]-N-ethyl-N-methyl-formamidine]
≥ 80%: all assays above

CCCOCC(C)Oc1nc(C)c(/N=C/N(C)CC)cc1Cl (stereo not drawn) [Q.015, N′-[5-chloro-2-methyl-6-(1-methyl-2-propoxy-ethoxy)-3-pyridyl]-N-ethyl-N-methyl-formamidine]
≥ 80%: all assays above

C=CCOCC(COC)Oc1nc(C)c(N=CN(C)CC)cc1Br (stereo not drawn) [Q.016, N′-[6-[1-(allyloxymethyl)-2-methoxy-ethoxy]-5-bromo-2-methyl-3-pyridyl]-N-ethyl-N-methyl-formamidine]
≥ 80%: all assays above

C=CCOCC(C)Oc1nc(C)c(N=CN(C)CC)cc1C#N (stereo not drawn) [Q.017, N′-[6-(2-allyloxy-1-methyl-ethoxy)-5-cyano-2-methyl-3-pyridyl]-N-ethyl-N-methyl-formamidine]
≥ 80%: all assays above

CCCOCC(C)Oc1nc(C)c(N=CN(C)C(C)C)cc1Br (stereo not drawn) [Q.018, N′-[5-bromo-2-methyl-6-(1-methyl-2-propoxy-ethoxy)-3-pyridyl]-N-isopropyl-N-methyl-formamidine]
≥ 80%: all assays above

CCCOCC(C)Oc1nc(C)c(/N=C/N(C)CC)cc1C(=O)OC (stereo not drawn) [Q.019, Methyl 5-[(E)-[ethyl(methyl)amino]methylene-amino]-6-methyl-2-(1-methyl-2-propoxy-ethoxy)pyridine-3-carboxylate]
≥ 80%: [3] | Phakopsora pachyrhizi

CCN(C)C=Nc1cc(C#N)c(OC(C)COc2cccc(C(F)(F)F)c2)nc1C (stereo not drawn) [Q.020, N′-[5-cyano-2-methyl-6-[1-methyl-2-[3-(trifluoromethyl)phenoxy]ethoxy]-3-pyridyl]-N-ethyl-N-methyl-formamidine]
≥ 80%: all assays above

CCN(C)C=Nc1cc(C#N)c(OC(C)COc2ccc(Cl)cc2)nc1C (stereo not drawn) [Q.021, N′-[6-[2-(4-chlorophenoxy)-1-methyl-ethoxy]-5-cyano-2-methyl-3-pyridyl]-N-ethyl-N-methyl-formamidine]
≥ 80%: [1] | [2] | [3]

CCN(C)C=Nc1cc(C#N)c(OC(C)COc2ccccc2)nc1C (stereo not drawn) [Q.022, N′-[5-cyano-2-methyl-6-(1-methyl-2-phenoxy-ethoxy)-3-pyridyl]-N-ethyl-N-methyl-formamidine]
≥ 80%: [1] | [2] | [3]

CCN(C)C=Nc1cc(Cl)c(OC(C)COc2cccc(C(F)(F)F)c2)nc1C (stereo not drawn) [Q.023, N′-[5-chloro-2-methyl-6-[1-methyl-2-[3-(trifluoromethyl)phenoxy]ethoxy]-3-pyridyl]-N-ethyl-N-methyl-formamidine]
≥ 80%: all assays above

CCN(C)C=Nc1cc(Cl)c(OC(C)COc2ccc(Cl)cc2)nc1C (stereo not drawn) [Q.024, N′-[5-chloro-6-[2-(4-chlorophenoxy)-1-methyl-ethoxy]-2-methyl-3-pyridyl]-N-ethyl-N-methyl-formamidine]
≥ 80%: all assays above

CCN(C)C=Nc1cc(Br)c(OC(C)COc2cccc(C(F)(F)F)c2)nc1C (stereo not drawn) [Q.027, N′-[5-bromo-2-methyl-6-[1-methyl-2-[3-(trifluoromethyl)phenoxy]ethoxy]-3-pyridyl]-N-ethyl-N-methyl-formamidine]
≥ 80%: [1] | [3] | Phakopsora pachyrhizi
